Results reported in patent US20040147478A1, “Combination chemotherapy” (priority 2002, published 2004).
Like-named read-outs stand apart in the source and are kept apart here.

Legend:
[1] = system: C26/clone 10 mouse colon carcinoma
[2] = system: C26/clone 10 mouse colon carcinoma; remark: listed apart in the source
[3] = system: COLO-205 human colon carcinoma xenografts
[4] = in vivo; settings: female, NCr-nu athymic
[5] = system: COLO-205 human colon carcinoma xenografts; remark: listed apart in the source
[6] = in vivo; settings: female, Balb/C, mouse, po
[7] = in vivo; settings: female, NCr-nu athymic; remark: listed apart in the source
[8] = system: COLO-205 human colon carcinoma xenografts; remark: listed apart in the source
[9] = in vivo; settings: female, NCr-nu athymic; remark: listed apart in the source
[10] = Capecitabine 500 mg/kg qd alone
[11] = Capecitabine 650 mg/kg qd alone
[12] = highest dose of capecitabine alone
[13] = Capecitabine 500 mg/kg QD alone
[14] = Capecitabine 650 mg/kg QD alone
[15] = Compound A single agent at the MTD

O=C(NOCC1CC1)c1ccc(F)c(F)c1Nc1ccc(I)cc1Cl [CI-1040, 2-(2-Chloro-4-iodo-phenylamino)-N-cyclopropylmethoxy-3,4-difluorobenzamide]
% Weight Change ([1]; CI-1040 37.5 mg/kg tid alone): −5.1%
CR (complete response) ([1]; CI-1040 37.5 mg/kg tid alone): 0/10
Net Log10 Kill ([1]; CI-1040 37.5 mg/kg tid alone): −0.62
Non-specific Deaths ([1]; CI-1040 37.5 mg/kg tid alone): 0/10
PR (partial response) ([1]; CI-1040 37.5 mg/kg tid alone): 0/10
T-C (tumor growth delay) ([1]; CI-1040 37.5 mg/kg tid alone): 3.8 days
Tumor Free (day 93) ([1]; CI-1040 37.5 mg/kg tid alone): 0/10
% Weight Change ([1]; CI-1040 75.0 mg/kg tid alone): −5.1%
CR (complete response) ([1]; CI-1040 75.0 mg/kg tid alone): 0/10
Net Log10 Kill ([1]; CI-1040 75.0 mg/kg tid alone): −0.21
Non-specific Deaths ([1]; CI-1040 75.0 mg/kg tid alone): 0/10
PR (partial response) ([1]; CI-1040 75.0 mg/kg tid alone): 0/10
T-C (tumor growth delay) ([1]; CI-1040 75.0 mg/kg tid alone): 9.8 days
Tumor Free (day 93) ([1]; CI-1040 75.0 mg/kg tid alone): 0/10
% Weight Change ([1]; CI-1040 300.0 mg/kg tid alone): −5.1%
CR (complete response) ([1]; CI-1040 300.0 mg/kg tid alone): 0/10
Net Log10 Kill ([1]; CI-1040 300.0 mg/kg tid alone): 0.25
Non-specific Deaths ([1]; CI-1040 300.0 mg/kg tid alone): 0/10
PR (partial response) ([1]; CI-1040 300.0 mg/kg tid alone): 2/10
T-C (tumor growth delay) ([1]; CI-1040 300.0 mg/kg tid alone): 16.7 days
Tumor Free (day 93) ([1]; CI-1040 300.0 mg/kg tid alone): 0/10
partial tumor responses ([1]; CI-1040 300 mg/kg/treatment alone): 20%
loss of initial body weight ([1]; CI-1040 alone, over the dosage range administered): approximately 5%
% Weight Change ([2]; CI-1040 37.5 mg/kg tid alone): −5.6%
CR (complete response) ([2]; CI-1040 37.5 mg/kg tid alone): 0/10
Net Log10 Kill ([2]; CI-1040 37.5 mg/kg tid alone): −0.93
Non-specific Deaths ([2]; CI-1040 37.5 mg/kg tid alone): 0/10
PR (partial response) ([2]; CI-1040 37.5 mg/kg tid alone): 0/10
T-C (tumor growth delay) ([2]; CI-1040 37.5 mg/kg tid alone): 1.9 days
Tumor Free (day 56) ([2]; CI-1040 37.5 mg/kg tid alone): 0/10
% Weight Change ([2]; CI-1040 75.0 mg/kg tid alone): −10.5%
CR (complete response) ([2]; CI-1040 75.0 mg/kg tid alone): 0/10
Net Log10 Kill ([2]; CI-1040 75.0 mg/kg tid alone): −0.33
Non-specific Deaths ([2]; CI-1040 75.0 mg/kg tid alone): 0/10
PR (partial response) ([2]; CI-1040 75.0 mg/kg tid alone): 1/10
T-C (tumor growth delay) ([2]; CI-1040 75.0 mg/kg tid alone): 9.0 days
Tumor Free (day 56) ([2]; CI-1040 75.0 mg/kg tid alone): 0/10
% Weight Change ([2]; CI-1040 300.0 mg/kg tid alone): −5.3%
CR (complete response) ([2]; CI-1040 300.0 mg/kg tid alone): 0/10
Net Log10 Kill ([2]; CI-1040 300.0 mg/kg tid alone): −0.04
Non-specific Deaths ([2]; CI-1040 300.0 mg/kg tid alone): 0/10
PR (partial response) ([2]; CI-1040 300.0 mg/kg tid alone): 4/10
T-C (tumor growth delay) ([2]; CI-1040 300.0 mg/kg tid alone): 12.5 days
Tumor Free (day 56) ([2]; CI-1040 300.0 mg/kg tid alone): 0/10
partial tumor rate ([2]; highest dose of CI-1040 alone): 40%

CCCCCOC(=O)Nc1nc(=O)n([C@@H]2O[C@H](C)[C@@H](O)[C@H]2O)cc1F [Capecitabine, 5′-deoxy-5-fluoro-N-[(pentyloxy)carbonyl]-cytidine]
Tumor Free (day 129) [3, 10]: 0/10
Non-specific Deaths [3, 11]: 0/10
Tumor Free (day 129) [3, 11]: 0/10
MTD [4]: 650 mg/kg
Tumor Free (day 112) [5, 10]: 1/9
Non-specific Deaths [5, 11]: 0/10
Tumor Free (day 112) [5, 11]: 2/10
CR (complete response) [1, 10]: 4/10
Net Log10 Kill [1, 10]: 0.50
Non-specific Deaths [1, 10]: 0/10
PR (partial response) [1, 10]: 1/10
T-C (tumor growth delay) [1, 10]: 18.4 days
Tumor Free (day 93) [1, 10]: 3/10
tumor growth delay ([1]; both dosages of capecitabine alone): approximately 18 days
complete tumor responses ([1]; capecitabine 500 mg/kg alone): 40%
partial tumor responses ([1]; capecitabine 500 mg/kg alone): 10%
tumor-free when the study ended on day 93 ([1]; capecitabine 500 mg/kg alone): 30%
complete tumor responses [1, 12]: 70%
partial tumor responses [1, 12]: 10%
loss of initial body weight ([1]; mouse, in vivo): approximately 5%
MTD [6]: 750 mg/kg/day
MTD [7]: 650 mg/kg
CR (complete response) [8, 13]: 0/10
Net Log10 Kill [8, 13]: 0.7
Non-specific Deaths [8, 13]: 0/10
PR (partial response) [8, 13]: 1/10
T-C (tumor growth delay) [8, 13]: 33.4 days
Tumor Free (day 118) [8, 13]: 0/10
CR (complete response) [8, 14]: 3/10
Net Log10 Kill [8, 14]: 1.5
Non-specific Deaths [8, 14]: 0/10
PR (partial response) [8, 14]: 4/10
T-C (tumor growth delay) [8, 14]: 56.0 days
Tumor Free (day 118) [8, 14]: 2/10
CR (complete response) [2, 10]: 0/10
Net Log10 Kill [2, 10]: 0.20
Non-specific Deaths [2, 10]: 0/10
PR (partial response) [2, 10]: 0/10
T-C (tumor growth delay) [2, 10]: 13.4 days
Tumor Free (day 56) [2, 10]: 0/10
partial tumor responses ([2]; capecitabine 750 mg/kg alone): 40%
MTD [9]: 650 mg/kg

O=C(NOC[C@H](O)CO)c1ccc(F)c(F)c1Nc1ccc(I)cc1F [Compound A, N-[(R)-2,3-Dihydroxy-propoxy]-3,4-difluoro-2-(2-fluoro-4-iodo-phenylamino)-benzamide]
tumor cells survived treatment (net kill calculations) [3, 15]: < 10%
MTD [4]: 12.5 mg/kg
tumor cells survived treatment (net kill calculations) ([5]; Compound A single agent, most tolerated dose levels): > 10%
MTD [7]: 12.5 mg/kg
Net Log10 Kill ([8]; Compound A 3.13 mg/kg QD alone): 0.9
T-C (tumor growth delay) ([8]; Compound A 3.13 mg/kg QD alone): 40.6 days
Net Log10 Kill ([8]; Compound A 6.25 mg/kg QD alone): 0.6
T-C (tumor growth delay) ([8]; Compound A 6.25 mg/kg QD alone): 30.1 days
growth delays [8, 15]: up to 42 days
tumor cells survived treatment (net kill calculations) ([8]; Compound A single agent, all tolerated dose levels): > 10%
complete regressions ([8]; Compound A single agent, all tolerated doses): > 50%
MTD [9]: 12.5 mg/kg
